# In patent publication US12421229B2, “Hydropyrido[1,2-α]pyrazine compounds for the treatment of autoimmune disease” (Hoffmann-La Roche Inc., priority 2019, dated 2025):
# Target: T1, human TLR9 (Homo sapiens, UniProt Q9NR96)
# T1 construct: host or cells: HEK293 (HEK-Blue hTLR9)
# T1 sequence (Q9NR96 26-1032): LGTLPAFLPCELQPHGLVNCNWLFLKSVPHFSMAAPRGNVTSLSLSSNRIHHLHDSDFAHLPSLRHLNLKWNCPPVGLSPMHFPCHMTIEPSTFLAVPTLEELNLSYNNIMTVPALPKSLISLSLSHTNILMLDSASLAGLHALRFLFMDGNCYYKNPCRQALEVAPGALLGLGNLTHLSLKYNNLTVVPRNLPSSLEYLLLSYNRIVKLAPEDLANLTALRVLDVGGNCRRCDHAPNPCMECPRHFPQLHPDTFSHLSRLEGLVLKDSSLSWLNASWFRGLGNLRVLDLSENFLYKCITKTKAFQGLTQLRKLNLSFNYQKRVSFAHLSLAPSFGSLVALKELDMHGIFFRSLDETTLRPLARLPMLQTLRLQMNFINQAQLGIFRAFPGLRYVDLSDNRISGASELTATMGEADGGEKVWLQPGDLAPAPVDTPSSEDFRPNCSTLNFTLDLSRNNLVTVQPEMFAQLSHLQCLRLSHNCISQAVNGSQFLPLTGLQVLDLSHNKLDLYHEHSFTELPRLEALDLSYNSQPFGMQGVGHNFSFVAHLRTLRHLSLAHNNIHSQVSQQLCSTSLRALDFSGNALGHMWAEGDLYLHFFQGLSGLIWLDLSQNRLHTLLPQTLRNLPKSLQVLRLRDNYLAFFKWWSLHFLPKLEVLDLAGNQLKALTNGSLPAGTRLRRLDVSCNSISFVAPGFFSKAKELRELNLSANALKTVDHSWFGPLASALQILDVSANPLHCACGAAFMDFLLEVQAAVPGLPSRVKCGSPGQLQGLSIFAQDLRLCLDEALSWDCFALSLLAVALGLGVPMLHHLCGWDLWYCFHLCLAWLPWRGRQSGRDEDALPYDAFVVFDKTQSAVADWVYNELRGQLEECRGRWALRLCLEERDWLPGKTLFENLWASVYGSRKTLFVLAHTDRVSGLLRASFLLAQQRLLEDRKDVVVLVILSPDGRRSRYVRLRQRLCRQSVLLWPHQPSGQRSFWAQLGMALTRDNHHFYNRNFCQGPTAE
# Assay: HEK293-Blue-hTLR-9 cells assay
# Assay type: cell-based
# Conditions: HEK293-Blue-hTLR9 cells, ODN2006 stimulation, 20 hrs, SEAP reporter; read-out: HEK/hTLR9 IC50
# Text: A stable HEK293-Blue-hTLR-9 cell line was purchased from InvivoGen (Cat. #: hkb-htlr9, San Diego, California, USA). These cells were originally designed for studying the stimulation of human TLR9 by monitoring the activation of NF-κB. A SEAP (secreted embryonic alkaline phosphatase) reporter gene was placed under the control of the IFN-β minimal promoter fused to five NF-κB and AP-1-binding sites. The SEAP was induced by activating NF-κB and AP-1 via stimulating HEK-Blue hTLR9 cells with TLR9 ligands. Therefore the reporter expression was declined by TLR9 antagonist under the stimulation of a ligand, such as ODN2006 (Cat. #: tlrl-2006-1, Invivogen, San Diego, California, USA), for incubation of 20 hrs. The cell culture supernatant SEAP reporter activity was determined using QUANTI-Blue™ kit (Cat. #: rep-qb1, Invivogen, San Diego, California, USA) at a wavelength of 640 nm, a detection medium that turns purple or blue in the presence of alkaline phosphatase.
# HEK293-Blue-hTLR9 cells were incubated at a density of 250,000˜450,000 cells/mL in a volume of 170 μL in a 96-well plate in Dulbecco's Modified Eagle's medium (DMEM) containing 4.5 g/L glucose, 50 U/mL penicillin, […], 2 mM L-glutamine, 10% (v/v) heat-inactivated fetal bovine serum with addition of 20 μL test compound in a serial dilution in the presence of final DMSO at 1% and 10 μL of 20 uM ODN2006 in above DMEM, perform incubation under 37° C. in a CO2 incubator for 20 hrs. Then 20 μL of the supernatant from each well was incubated with 180 μL Quanti-blue substrate solution at 37° C. for 2 h and the absorbance was read at 620˜655 nm using a spectrophotometer. The signaling pathway that TLR9 activation leads to downstream NF-κB activation has been widely accepted, and therefore similar reporter assay was modified for evaluating TLR9 antagonist.
row,Compound,IC50
1,"CO[C@@H]1CN(c2ccc([C@@H]3CCN4[C@@H](C3)CN(c3ccc(C#N)c5ncccc35)C[C@H]4C)cn2)C[C@H]1N [Example 14, 5-[(4R,8R,9aS)-8-[6-[(3R,4R)-3-amino-4-methoxy-pyrrolidin-1-yl]-3-pyridyl]-4-methyl-1,3,4,6,7,8,9,9a-octahydropyrido[1,2-a]pyrazin-2-yl]quinoline-8-carbonitrile]",0.078 µM
2,"[2H]c1ccc2c(N3C[C@@H]4C[C@H](N5CCN(c6ccncc6)CC5)CCN4[C@H](C)C3)ccc(C#N)c2n1 [Example 37, 5-[(4R,8R,9aS)-4-methyl-8-[4-(4-pyridyl)piperazin-1-yl]-1,3,4,6,7,8,9,9a-octahydropyrido[1,2-a]pyrazin-2-yl]-2-deuterio-quinoline-8-carbonitrile]",0.034 µM
3,"C[C@@H]1CN(c2ccc(C#N)c3ncccc23)C[C@H]2C[C@H](c3ccc(N4CCNCC4)nc3)CCN21 [Example 15, 5-[(4R,8R,9aR)-4-methyl-8-(6-piperazin-1-yl-3-pyridyl)-1,3,4,6,7,8,9,9a-octahydropyrido[1,2-a]pyrazin-2-yl]quinoline-8-carbonitrile]",0.084 µM
4,"CO[C@H]1CN(c2ccc([C@@H]3CCN4[C@@H](C3)CN(c3ccc(C#N)c5ncccc35)C[C@H]4C)cn2)C[C@H]1N [Example 12, 5-[(4R,8R,9aS)-8-[6-[(3R,4S)-3-amino-4-methoxy-pyrrolidin-1-yl]-3-pyridyl]-4-methyl-1,3,4,6,7,8,9,9a-octahydropyrido[1,2-a]pyrazin-2-yl]quinoline-8-carbonitrile]",0.066 µM
5,[2H]c1ccc2c(N3C[C@@H]4C[C@@H](N5CC(c6ccc(N7C[C@@H](N)[C@H](OC)C7)cc6)C5)CCN4[C@H](C)C3)ccc(C#N)c2n1 [Example 36],0.032 µM
6,"C[C@@H]1CN(c2ccc(C#N)c3ncccc23)C[C@@H]2C[C@@H](Oc3cncc(N4CCNCC4)c3)CCN21 [Example 29, 5-[(4R,8S,9aS)-4-methyl-8-[(5-piperazin-1-yl-3-pyridyl)oxy]-1,3,4,6,7,8,9,9a-octahydropyrido[1,2-a]pyrazin-2-yl]quinoline-8-carbonitrile]",0.089 µM
7,"C[C@@H]1CN(c2ccc(C#N)c3ncccc23)C[C@@H]2C[C@@H](Oc3ccc(N4CCNCC4)cn3)CCN21 [Example 11, 5-[(4R,8S,9aS)-4-methyl-8-[(5-piperazin-1-yl-2-pyridyl)oxy]-1,3,4,6,7,8,9,9a-octahydropyrido[1,2-a]pyrazin-2-yl]quinoline-8-carbonitrile]",0.09 µM
8,"C[C@@H]1CN(c2ccc(C#N)c3ncccc23)C[C@@H]2C[C@H](c3ccc([C@@H]4CNCCO4)cc3)CCN21 [Example 27, 5-[(4R,8R,9aS)-4-methyl-8-[4-[(2R)-morpholin-2-yl]phenyl]-1,3,4,6,7,8,9,9a-octahydropyrido[1,2-a]pyrazin-2-yl]quinoline-8-carbonitrile]",0.072 µM
9,"C[C@@H]1CN(c2ccc(C#N)c3ncccc23)C[C@@H]2C[C@@H](Oc3cnc(N4CCNCC4)nc3)CCN21 [Example 18, 5-[(4R,8S,9aS)-4-methyl-8-(2-piperazin-1-ylpyrimidin-5-yl)oxy-1,3,4,6,7,8,9,9a-octahydropyrido[1,2-a]pyrazin-2-yl]quinoline-8-carbonitrile]",0.06 µM
10,"C[C@@H]1CN(c2ccc(C#N)c3ncccc23)C[C@@H]2C[C@H](c3ccc(N4CCNCC4)nc3)CCN21 (stereo in doubt) [Example 2, 5-[(4R,8R)-4-methyl-8-(6-piperazin-1-yl-3-pyridyl)-1,3,4,6,7,8,9,9a-octahydropyrido[1,2-a]pyrazin-2-yl]quinoline-8-carbonitrile]",0.081 µM
11,"C[C@@H]1CN(c2ccc(C#N)c3ncccc23)C[C@@H]2C[C@H](c3ccc(N4CCNCC4)nc3)CCN21 [Example 4, 5-[(4R,8R,9aS)-4-methyl-8-(6-piperazin-1-yl-3-pyridyl)-1,3,4,6,7,8,9,9a-octahydropyrido[1,2-a]pyrazin-2-yl]quinoline-8-carbonitrile]",0.086 µM
12,"CO[C@H]1CN(c2ccc(C3CN([C@@H]4CCN5[C@@H](C4)CN(c4ccc(C#N)c6ncccc46)C[C@H]5C)C3)cc2)C[C@H]1N [Example 32, 5-[(4R,8R,9aS)-8-[3-[4-[(3R,4S)-3-amino-4-methoxy-pyrrolidin-1-yl]phenyl]azetidin-1-yl]-4-methyl-1,3,4,6,7,8,9,9a-octahydropyrido[1,2-a]pyrazin-2-yl]quinoline-8-carbonitrile]",0.033 µM
13,"C[C@@H]1CN(c2ccc(C#N)c3ncccc23)C[C@@H]2C[C@H](c3ccc(N4CCOC[C@@H](N)C4)nc3)CCN21 [Example 23, 5-[(4R,8R,9aS)-8[6-[(6S)-6-amino-1,4-oxazepan-4-yl]-3-pyridyl]-4-methyl-1,3,4,6,7,8,9,9a-octahydropyrido[1,2-a]pyrazin-2-yl]quinoline-8-carbonitrile]",0.075 µM
